Reference: PMC4104029, “Mechanism of Action of Compound-13: An α1-Selective Small Molecule Activator of AMPK” (Chemistry & Biology, 2014)

Molecular target: T1, GST-AMPKγ2 subunit fusion (Homo sapiens, UniProt Q9UGJ0)
T1 construct: A C-terminal fragment of AMPKγ2 bearing CBS domains 1-4 (247-569) was expressed in; made in house; host or cells: E. coli
Assay: Competitive elution of AMPKγ2 from ATP-Sepharose
Type: binding
Conditions: C2 and AMP to the same extent
Method: Supplemental Figure Legends:
Figure S1, related to Figures 1-3. Subunit composition of AMPK preparations used in this study. (A) Heterotrimeric AMPK complexes (10 ng) produced in both Sf9 (Sigma and Signalchem) and E.coli (in our laboratory) were analysed by Western blotting using isoform specific antibodies. Note that both the α2/α1-HOOK and α2/α1-LOOP chimeras are no longer recognised by the anti-α2 antibody as the epitope has been replaced (see Fig S4). (B) Heterotrimeric AMPK α2/α1 chimeric complexes expressed in E.coli (2 μg) were separated by SDS-PAGE and stained with Coomassie G-250. Arrows indicate the position of the […]
Figure S2, related to Figure 1. C2 has negligible effects on a panel of 138 protein kinases.
Kinase inhibition screen was performed by the International Centre for Kinase profiling (Dundee). Assays were performed in duplicate using 10 µM C2 and are representative of two independent screens. Results are shown in rank order as mean % activity compared with controls in the absence of compound ± SD. […]
Figure S3, related to Figure 2. […] Results are expressed as mean Pi incorporated in nmol.min-1.mg-1 ± SD. […] Results are expressed as fold increase in activity relative to controls in the absence of compound ± SD.
(E) C2 and AMP displace a GST-AMPKγ2 subunit fusion from ATP-γ-Sepharose. […] The presence of eluted AMPKγ2 was analysed by SDS-PAGE and staining with colloidal Coomassie. […]

T1 sequence (Q9UGJ0 247-569): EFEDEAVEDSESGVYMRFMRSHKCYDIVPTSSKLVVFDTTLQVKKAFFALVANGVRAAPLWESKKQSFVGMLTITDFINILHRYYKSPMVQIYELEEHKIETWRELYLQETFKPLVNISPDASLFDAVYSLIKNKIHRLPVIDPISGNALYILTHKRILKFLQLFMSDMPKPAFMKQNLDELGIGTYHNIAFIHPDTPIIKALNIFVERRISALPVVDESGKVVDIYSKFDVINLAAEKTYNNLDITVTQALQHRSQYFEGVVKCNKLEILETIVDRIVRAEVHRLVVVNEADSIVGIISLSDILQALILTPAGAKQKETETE

| SMILES | displacement from ATP-γ-Sepharose |
| --- | --- |
| Nc1ncnc2c1ncn2[C@@H]1O[C@H](COP(=O)(O)O)[C@@H](O)[C@H]1O [AMP, reference compound] | displaced |
| O=P(O)(O)c1ccc(-c2cc(O)on2)o1 [Compound C2, 5-(5-hydroxyl-isoxazol-3-yl)-furan-2-phosphonic acid] | displaced |
